Source: US8962657B2, “Aryl derivatives and uses thereof” (Jacobus Pharmaceutical Company, Inc., priority 2012, dated 2015)
Marks after values point to notes of the source that are not given here.

Tested on: Plasmodium berghei (KBG-173 strain)
Assay: Plasmodium berghei assay in vivo (modified Thompson Test), survival of infected mice
Set-up: species or system Charles River CD-1 mice
Settings: oral bid on days 3, 4 and 5; for Average Days Survival: 31 day experiment
Experimental: In vivo antimalarial activity was tested in male or female Charles River CD-1 mice that were 4-5 weeks old and weighed 20-25 g They were housed in groups of 3 or 4 in standard plastic cages with wire tops, Bed-o-cob® bedding, 12 hr/day of light, and maintained at 75° F. They were fed a standard Ralston Purina mouse chow and the cages and bottles were changed twice a week. Test compounds were ground in a mortar and pestle and diluted with enough vehicle to give a volume of 10 mL/kg of mouse weight. The oral doses were prepared in 0.5% hydroxyethylcellulose (Union Carbide Corp. WP 4400)/0.1% Tween-80 (Fisher Scientific T164-500). The amount of drug was calculated on the free base weight. The mice were infected intraperitoneally on day 0 with 5×10^4 erythrocytes parasitized with Plasmodium berghei (KBG-173 strain) from a donor mouse having a parasitemia between 5-10%. On days 3, 4 and 5 the test compounds were administered bid, spaced 6 hr apart, by oral gavage to the mice. Activity was measured by survival, with full activity defined as all animals living at day 31. Partial activity is defined as days of increased survival versus the infected non-treated controls. This in vivo model is a modification of the Thompson Test. For further description see Ager, A. L, Jr. Rodent Malaria Models. In Handbook of Experimental Pharmacology: Antimalarial Drugs. 1. 68/1; Peters, W., Richards, W. H. G., Eds.: Springer-Verlag: Berlin, 1984, pp. 231-33.

[1] = Plasmodium berghei, 744 h, 2 mg/kg/day, read-out: Number of mice alive at day 31 (converted)
[2] = Plasmodium berghei, 744 h, 4 mg/kg/day, read-out: Number of mice alive at day 31 (converted)
[3] = Plasmodium berghei, 744 h, 8 mg/kg/day, read-out: Number of mice alive at day 31 (converted)
[4] = Plasmodium berghei, 744 h, 16 mg/kg/day, read-out: Number of mice alive at day 31 (converted)
[5] = Plasmodium berghei, 744 h, 32 mg/kg/day, read-out: Number of mice alive at day 31 (converted)
[6] = Plasmodium berghei, 744 h, 64 mg/kg/day, read-out: Number of mice alive at day 31 (converted)

Structure (SMILES)	Average Days Survival (2 mg/kg/day)	Average Days Survival (4 mg/kg/day)	Average Days Survival (8 mg/kg/day)	Average Days Survival (16 mg/kg/day)	Average Days Survival (32 mg/kg/day)	Average Days Survival (64 mg/kg/day)	responders at 2 mg/kg [1]	responders at 4 mg/kg [2]	responders at 8 mg/kg [3]	responders at 16 mg/kg [4]	responders at 32 mg/kg [5]	responders at 64 mg/kg [6]	Average Days Survival (128 mg/kg/day)	Average Days Survival (256 mg/kg/day)	responders at 128 mg/kg (Plasmodium berghei, 744 h, 128 mg/kg/day, read-out: Number of mice alive at day 31 (converted))	responders at 256 mg/kg (Plasmodium berghei, 744 h, 256 mg/kg/day, read-out: Number of mice alive at day 31 (converted))	Average Days Survival (1 mg/kg/day)	responders at 1 mg/kg (Plasmodium berghei, 744 h, 1 mg/kg/day, read-out: Number of mice alive at day 31 (converted))
CC(C)(C)NCc1cc(C(C)(C)C)cc(-c2ccc(C(F)(F)F)cc2)c1O.Cl [Example 22, 5-(tert-Butyl)-3-((tert-butylamino)methyl)-4′-(trifluoromethyl)-[1,1′-biphenyl]-2-ol hydrochloride]	>16.8 days	>24 days	>31* Days	>31* Days	>31* Days	>31* Days	28.6%	85.7%	100%	100%	100%	100%						
CC1(NCc2cc(C(C)(C)C)cc(-c3ccc(OC(F)(F)F)cc3)c2O)CCC1.Cl [Example 18, 5-(tert-Butyl)-3-(((1-methylcyclobutyl)amino)methyl)-4′-(trifluoromethoxy)-[1,1′-biphenyl]-2-ol hydrochloride]		15.7 days	>31* Days	>31* Days	>31* Days			0%	100%	100%	100%							
CC(C)(C)NCc1cc(C(C)(C)C)cc(-c2cc(C(F)(F)F)cc(C(F)(F)F)c2)c1O.Cl [Example 16, 5-(tert-Butyl)-3-((tert-butylamino)methyl)-3′,5′-bis(trifluoromethyl)-[1,1′-biphenyl]-2-ol hydrochloride]	>20.5 days	>17 days	>31* Days	>31* Days	>31* Days		42.9%	85.7%	100%	100%	100%							
CC(C)(C)NCc1cc(-c2ccc(Cl)cc2)cc(-c2ccc(Cl)c(Cl)c2)c1O.Cl [Example 39, 5′-((tert-Butylamino)methyl)-3″,4,4″-trichloro-[1,1′:3′,1″-terphenyl]-4′-ol hydrochloride]	>23 days	>31* Days	>31* Days	>31* Days			14.3%	100%	100%	100%								
CC(C)(C)NCc1cc(C(C)(C)C)cc(-c2ccc(OC(F)(F)F)cc2)c1O [Example 5, 5-(tert-Butyl)-3-((tert-butylamino)methyl)-4′-(trifluoromethoxy)-[1,1′-biphenyl]-2-ol]		>19.3 days	>31* Days	>31* Days	>31* Days	>31* Days		42.9%	100%	100%	100%	100%	>31* Days	>31* Days	100%	100%		
CC(C)(C)NCc1cc(C(C)(C)C)cc(-c2ccc(F)c(Cl)c2)c1O.Cl [Example 24, 5-(tert-Butyl)-3-((tert-butylamino)methyl)-3′-chloro-4′-fluoro-[1,1′-biphenyl]-2-ol hydrochloride]	>17 days	>14.5 days	>16 days	>31* Days	>31* Days		42.9%	71.4%	85.7%	100%	100%							
CC(C)(C)NCc1cc(C(C)(C)C)cc(-c2ccc(Cl)c(Cl)c2)c1O.Cl [Example 19, 5-(tert-Butyl)-3-((tert-butylamino)methyl)-3′,4′-dichloro-[1,1′-biphenyl]-2-ol hydrochloride]	>7 days	>31* Days	>31* Days	>31* Days			85.7%	100%	100%	100%							>19.6 days	28.6%
